Data published in ChEMBL document CHEMBL2062485, “Structural characterization and antimicrobial evaluation of atractyloside, atractyligenin, and 15-didehydroatractyligenin methyl ester” (2012).

Legend:
Format in all cases: functional
Staphylococcus aureus [1] = experiment: Antibacterial activity against floroquinilone-resistant Staphylococcus aureus SA1199B by MTT assay
Staphylococcus aureus [2] = experiment: Antibacterial activity against Staphylococcus aureus […] by MTT assay
Staphylococcus aureus [3] = experiment: Antibacterial activity against epidemic methicillin-resistant Staphylococcus aureus isolate 15 by MTT assay
Staphylococcus aureus [4] = experiment: Antibacterial activity against epidemic methicillin-resistant Staphylococcus aureus isolate 16 by MTT assay

Measured: MIC

C=C1C(=O)[C@@]23CC[C@@H]4[C@H](C(=O)OC)C[C@@H](O)C[C@@]4(C)[C@@H]2CC[C@H]1C3
128 µg/mL: all assays above
